This is an account of results in article PMC5688156, “The natural product carolacton inhibits folate-dependent C1 metabolism by targeting FolD/MTHFD” (Nature Communications, 2017).

Values joined by “and” are separate entries in the source; they are usually repeats but may differ in a detail not shown here. Equal entries are not always repeated. Where two headings read alike, the source gives them in different places.

The target in one test is T1, hsMTHFD1_DC (Homo sapiens, UniProt P11586).
T1 construct: hsMTHFD1 DC301; His-tag (TEV-cleavable, vector pHis-TEV); made in house; host or cells: E. coli BL21 (DE3)
T1 sequence (P11586 2-291 limits assumed): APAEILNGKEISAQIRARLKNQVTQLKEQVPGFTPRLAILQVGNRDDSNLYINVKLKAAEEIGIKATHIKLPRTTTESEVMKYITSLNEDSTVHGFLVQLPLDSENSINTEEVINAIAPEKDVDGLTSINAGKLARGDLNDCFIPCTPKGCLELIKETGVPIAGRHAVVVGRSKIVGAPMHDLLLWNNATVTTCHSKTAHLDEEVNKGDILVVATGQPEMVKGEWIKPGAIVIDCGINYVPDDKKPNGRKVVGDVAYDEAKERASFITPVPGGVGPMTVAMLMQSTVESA
Nature of the test: hsMTHFD1_DC dehydrogenase (DH) enzyme assay. Type of test: biochemical. To be noted: hsMTHFD1 DC301. How it is done:
(§1) (6R,S)-5,10-Methylene-5,6,7,8-tetrahydrofolic acid ((6R,S)-5,10-CH2-THF) calcium salt and (6R,S)-5,10-Methenyl-5,6,7,8-tetrahydrofolic acid ((6R,S)-5,10-CH=THF) chloride were purchased from Schircks Laboratories (Bauma, Switzerland) and used as substrates for FolD dehydrogenase and cyclohydrolase enzyme assays, respectively. Only the R-isomer, which accounts for 50% of (6R,S)-5,10-CH2-THF and (6R,S)-5,10-CH=THF, respectively, is used by the enzyme. (6R,S)-5,10-CH2-THF was dissolved in N2-spargeled basic buffer (50 mM Tris-HCl (pH 8.0), 100 mM β-mercaptoethanol) as described by Varshney et al.[25]. (6R,S)-5,10-CH=THF was dissolved in DMSO as a 100 mM stock solution.
(§2) Because FolD is a bifunctional enzyme, dehydrogenase and cyclohydrolase activities were determined for FolD enzyme kinetics, respectively. The dehydrogenase activity of FolD was assayed for its substrate 5,10-CH2-THF and cofactor NADP^+ (in the case of MTHFD2, NAD^+ was used as the cofactor) based on monitoring the formation of 5,10-CH=THF, while the cyclohydrolase activity of FolD was determined for its substrate 5,10-CH=THF by monitoring the hydrolysis of […]. The enzyme kinetics for the dehydrogenase activity of all FolDs except hsMTHFD1_DC were determined at 30 °C in 50 mM Tris-HCl (pH 7.5), 30 mM β-mercaptoethanol. The hsMTHFD1_DC dehydrogenase activity was measured in 25 mM MOPS (pH 7.3), 30 mM β-mercaptoethanol at 30 °C. To measure the enzyme kinetic constants for 5,10-CH2-THF, for example in the case of ecFolD, the NADP concentration was fixed at 1 mM and the concentration of 5,10-CH2-THF varied from 5 to 1500 μM (R-isomer). Similarly, to measure the kinetic constants of ecFolD for NADP^+, the concentration of 5,10-CH2-THF (R-isomer) was fixed at 1 mM and the concentration of NADP^+ varied from 10 to 1500 μM. For different FolDs, the varied concentration range of substrates could be different. […] To monitor the formation of 5,10-CH=THF, the absorbance of the reaction mixture was monitored at 350 nm in micro UV cuvettes (BRAND, Essex, Connecticut, USA). The concentration of 5,10-CH=THF produced in the reaction was determined using an extinction co-efficient of 0.0249 μM^−1 cm^−1. […] The consumption of 5,10-CH=THF was measured by recording the absorbance of the reactions at 355 nm using the TECAN Infinite 200 PRO equipped with a monochromator. […] The inhibition constants (K i) of carolacton on FolD were determined by measuring the apparent K m when adding certain amounts of carolacton to the enzyme reactions. […] To compare the inhibition effects of carolacton between the different FolDs, the half maximal inhibitory concentration (IC50) of carolacton on the same amount of enzyme was determined for FolDs involved in this study. […]

The target of test [1] is T2, ecFolD (Escherichia coli, UniProt P24186).
T2 construct: His-tag (TEV-cleavable, vector pHis-TEV); made in house; host or cells: E. coli BL21 (DE3)
The test can be described thus: ecFolD cyclohydrolase (CYH) enzyme assay. It counts as biochemical, E. coli. On the procedure: as §1
(§3) Because FolD is a bifunctional enzyme, dehydrogenase and cyclohydrolase activities were determined for FolD enzyme kinetics, respectively. The dehydrogenase activity of FolD was assayed for its substrate 5,10-CH2-THF and cofactor NADP^+ (in the case of MTHFD2, NAD^+ was used as the cofactor) based on monitoring the formation of 5,10-CH=THF, while the cyclohydrolase activity of FolD was determined for its substrate 5,10-CH=THF by monitoring the hydrolysis of […]. The enzyme kinetics for the dehydrogenase activity of all FolDs except hsMTHFD1_DC were determined at 30 °C in 50 mM Tris-HCl (pH 7.5), 30 mM β-mercaptoethanol. The hsMTHFD1_DC dehydrogenase activity was measured in 25 mM MOPS (pH 7.3), 30 mM β-mercaptoethanol at 30 °C. […] To monitor the formation of 5,10-CH=THF, the absorbance of the reaction mixture was monitored at 350 nm in micro UV cuvettes (BRAND, Essex, Connecticut, USA). The concentration of 5,10-CH=THF produced in the reaction was determined using an extinction co-efficient of 0.0249 μM^−1 cm^−1. […] The consumption of 5,10-CH=THF was measured by recording the absorbance of the reactions at 355 nm using the TECAN Infinite 200 PRO equipped with a monochromator. […] The inhibition constants (K i) of carolacton on FolD were determined by measuring the apparent K m when adding certain amounts of carolacton to the enzyme reactions. […]

For another test, the target named is T3, spFolD (Streptococcus pneumoniae serotype 4, UniProt Q97RI9).
T3 construct: His-tag (TEV-cleavable, vector pHis-TEV); made in house; host or cells: E. coli BL21 (DE3)
T3 sequence (Q97RI9 whole entry): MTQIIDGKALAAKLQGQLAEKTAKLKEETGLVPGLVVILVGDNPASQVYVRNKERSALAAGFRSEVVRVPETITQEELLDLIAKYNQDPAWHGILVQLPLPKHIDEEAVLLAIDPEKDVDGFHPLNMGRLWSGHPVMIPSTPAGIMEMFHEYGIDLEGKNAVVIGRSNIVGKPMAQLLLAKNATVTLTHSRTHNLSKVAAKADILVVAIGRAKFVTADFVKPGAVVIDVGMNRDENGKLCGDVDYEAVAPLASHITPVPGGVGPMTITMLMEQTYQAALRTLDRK
Nature of the test: spFolD cyclohydrolase (CYH) enzyme assay. Type of test: biochemical, S. pneumoniae. How it is done:
as §1, §3

Test [2] concerns the target T2, ecFolD. Nature of the test: ecFolD dehydrogenase (DH) enzyme assay. Type of test: biochemical, E. coli. Particulars: for Ki: carolacton inhibition on DH activity, from apparent KM. On the procedure:
as §1, §2

Regarding `CO[C@H](CC(=O)O)[C@@H](C)C(=O)[C@H](C)/C=C(\C)[C@H]1OC(=O)[C@H](O)[C@H](O)/C=C/[C@H](C)CCC[C@@H]1C` [carolacton], the IC50 – broadly, the concentration needed to halve the response being measured – on hsMTHFD1_DC (10 nM enzyme, read-out: IC50, carolacton inhibition on DH activity) is 0.038 µM; against ecFolD [1] it was 0.0498 µM; at spFolD (5 nM enzyme, read-out: IC50, carolacton inhibition on CYH activity), 0.0381 µM; against ecFolD [2], 0.0155 µM. Moreover, the IC80 (in general, the point of the concentration-response curve where the effect stands at 80%) at hsMTHFD1_DC (10 nM enzyme, read-out: IC80, carolacton inhibition on DH activity) is 0.0776 µM; on ecFolD [1] (read-out: IC80, carolacton inhibition on CYH activity), 0.18 µM; at spFolD (5 nM enzyme, read-out: IC80, carolacton inhibition on CYH activity), 0.101 µM; at ecFolD [2] (read-out: IC80, carolacton inhibition on DH activity), 0.0522 µM. Besides, the Ki at hsMTHFD1_DC (vs 5,10-CH2-THF, read-out: Ki (5,10-CH2-THF), carolacton inhibition on DH activity) is 0.00593 µM; on hsMTHFD1_DC (vs NADP+, read-out: Ki (NADP+), carolacton inhibition on DH activity), 0.0587 µM; at ecFolD [1] (Ki (5,10-CH=THF), carolacton inhibition on CYH activity, competitive vs substrate 5,10-CH=THF, from apparent KM), 0.032 µM and 0.0316 µM; at spFolD (vs 5,10-CH=THF, read-out: Ki (5,10-CH=THF), carolacton inhibition on CYH activity), 0.0381 µM; on ecFolD [2] (Ki (5,10-CH2-THF), competitive vs substrate 5,10-CH2-THF) it was 0.021 µM and 0.0213 µM; at ecFolD [2] (Ki (NADP+), competitive vs cofactor NADP+), 0.011 µM and 0.0109 µM.
